Numbers after ± are expanded uncertainties.
Assay: activity coefficient (dimensionless); of the first substance listed, at infinite dilution; xn = mol fraction of the nth substance listed
Settings: 101 kPa, Liquid, dilutor technique, x1 = 0

## C=CCCCCCCCC [1-decene] + CCCCCCn1cc[n+](C)c1.F[B-](F)(F)F
318.2 K
  activity coefficient: 54.6 ± 2.7
328.16 K
  activity coefficient: 48.7 ± 2.4
338.17 K
  activity coefficient: 46 ± 2.3

## C=CCCCCCCCC [1-decene] + CCCCn1cc[n+](C)c1.F[B-](F)(F)F
323.16 K
  activity coefficient: 224 ± 11
333.17 K
  activity coefficient: 207 ± 10
343.17 K
  activity coefficient: 190 ± 9.5
353.16 K
  activity coefficient: 180 ± 9

## C=CCCCCC [1-heptene] + CCCCCCn1cc[n+](C)c1.F[B-](F)(F)F
318.11 K
  activity coefficient: 19.6 ± 0.98
328.19 K
  activity coefficient: 19.3 ± 0.97
338.14 K
  activity coefficient: 18.8 ± 0.94
348.11 K
  activity coefficient: 18 ± 0.9

## C=CCCCCC [1-heptene] + CCCCn1cc[n+](C)c1.F[B-](F)(F)F
323.16 K
  activity coefficient: 52 ± 2.6
333.24 K
  activity coefficient: 50.3 ± 2.5
343.15 K
  activity coefficient: 46.6 ± 2.3
353.23 K
  activity coefficient: 43.2 ± 2.2

## CCCCCCCCCC [decane] + CCCCCCn1cc[n+](C)c1.F[B-](F)(F)F
318.21 K
  activity coefficient: 129 ± 6.4
328.16 K
  activity coefficient: 115 ± 5.8
338.14 K
  activity coefficient: 110 ± 5.5
348.16 K
  activity coefficient: 104 ± 5.2

## CCCCCCCCCC [decane] + CCCCn1cc[n+](C)c1.F[B-](F)(F)F
323.12 K
  activity coefficient: 620 ± 31
343.21 K
  activity coefficient: 443 ± 22
353.16 K
  activity coefficient: 383 ± 19

## CCCCCCC [heptane] + CCCCCCn1cc[n+](C)c1.F[B-](F)(F)F
303.16 K
  activity coefficient: 45 ± 2.2
318.14 K
  activity coefficient: 42 ± 2.1
323.27 K
  activity coefficient: 41.1 ± 2
333.11 K
  activity coefficient: 38.9 ± 1.9
343.09 K
  activity coefficient: 36.8 ± 1.8

## CCCCCCC [heptane] + CCCCn1cc[n+](C)c1.F[B-](F)(F)F
323.16 K
  activity coefficient: 95.8 ± 4.8
328.16 K
  activity coefficient: 89 ± 4.5
333.14 K
  activity coefficient: 83.8 ± 4.2
338.14 K
  activity coefficient: 80.1 ± 4
343.22 K
  activity coefficient: 75.3 ± 3.8

## C=CCCCC [hex-1-ene] + CCCCCCn1cc[n+](C)c1.F[B-](F)(F)F
318.11 K
  activity coefficient: 13 ± 0.65
328.19 K
  activity coefficient: 12.1 ± 0.61
338.17 K
  activity coefficient: 11.9 ± 0.6
348.15 K
  activity coefficient: 11.4 ± 0.57

## C=CCCCC [hex-1-ene] + CCCCn1cc[n+](C)c1.F[B-](F)(F)F
323.16 K
  activity coefficient: 30.1 ± 1.5
333.15 K
  activity coefficient: 27.8 ± 1.4
343.22 K
  activity coefficient: 25.7 ± 1.3
353.14 K
  activity coefficient: 23.9 ± 1.2

## CCCCCC [hexane] + CCCCn1cc[n+](C)c1.F[B-](F)(F)F
323.15 K
  activity coefficient: 66.7 ± 3.3
328.18 K
  activity coefficient: 63.3 ± 3.2
333.2 K
  activity coefficient: 61 ± 3
343.26 K
  activity coefficient: 54.9 ± 2.8

## CCCCCCCCC [nonane] + CCCCCCn1cc[n+](C)c1.F[B-](F)(F)F
318.21 K
  activity coefficient: 88 ± 4.4
328.16 K
  activity coefficient: 81.2 ± 4.1
338.14 K
  activity coefficient: 76.7 ± 3.8
348.16 K
  activity coefficient: 72.9 ± 3.6

## CCCCCCCCC [nonane] + CCCCn1cc[n+](C)c1.F[B-](F)(F)F
323.12 K
  activity coefficient: 334 ± 17
343.21 K
  activity coefficient: 270 ± 14
353.16 K
  activity coefficient: 225 ± 11

## C=CCCCCCC [oct-1-ene] + CCCCCCn1cc[n+](C)c1.F[B-](F)(F)F
318.11 K
  activity coefficient: 29.4 ± 1.5
328.19 K
  activity coefficient: 28.1 ± 1.4
338.14 K
  activity coefficient: 27.2 ± 1.4
348.11 K
  activity coefficient: 25.8 ± 1.3

## C=CCCCCCC [oct-1-ene] + CCCCn1cc[n+](C)c1.F[B-](F)(F)F
323.16 K
  activity coefficient: 88.6 ± 4.4
333.24 K
  activity coefficient: 84.8 ± 4.2
343.15 K
  activity coefficient: 78.8 ± 3.9
353.23 K
  activity coefficient: 74.2 ± 3.7

## CCCCCCCC [octane] + CCCCCCn1cc[n+](C)c1.F[B-](F)(F)F
303.16 K
  activity coefficient: 69.6 ± 3.5
318.14 K
  activity coefficient: 62.3 ± 3.1
323.27 K
  activity coefficient: 59.5 ± 3
333.11 K
  activity coefficient: 56 ± 2.8
343.09 K
  activity coefficient: 52.5 ± 2.6

## CCCCCCCC [octane] + CCCCn1cc[n+](C)c1.F[B-](F)(F)F
323.16 K
  activity coefficient: 170 ± 8.5
328.16 K
  activity coefficient: 160 ± 8
333.14 K
  activity coefficient: 155 ± 7.7
338.14 K
  activity coefficient: 146 ± 7.3
343.22 K
  activity coefficient: 143 ± 7.1

Source: the NIST ThermoML archive (doi:10.1016/j.fluid.2009.05.007)
